Experimental data: ChEMBL document CHEMBL2016453, “Design, synthesis and anticonvulsant activities of novel 1-(substituted/unsubstituted benzylidene)-4-(4-(6,8-dibromo-2-(methyl/phenyl)-4-oxoquinazolin-3(4H)-yl)phenyl) semicarbazide derivatives” (Bioorg Med Chem Lett, 2012)
Active and inactive are the calls of the source. The calls are words filed in the database; no cut-off is given here.

Tests used:
Mus musculus [1] = test: Anticonvulsant activity in ip dosed Swiss albino mouse assessed as protection against maximal electroshock-induced seizures after 0.5 hrs; type: functional; details: read-out: MED
[2] = Neurotoxicity in ip dosed Swiss albino mouse assessed as maximum tolerated dose after 4 hrs by rotorod test; type: toxicity, organism-based; details: in vivo
Mus musculus [3] = test: Anticonvulsant activity in ip dosed Swiss albino mouse assessed as protection against maximal electroshock-induced seizures after 4 hrs; type: functional; details: read-out: MED
[4] = Neurotoxicity in ip dosed Swiss albino mouse assessed as maximum tolerated dose after 0.5 hrs by rotorod test; type: toxicity, organism-based; details: in vivo
Mus musculus [5] = test: Anticonvulsant activity in ip dosed Swiss albino mouse assessed as protection against subcutaneous pentylenetetrazole-induced seizures after 0.5 hrs; type: functional; details: read-out: MED
Mus musculus [6] = test: Anticonvulsant activity in Swiss albino mouse assessed as protection against subcutaneous pentylenetetrazole-induced seizures at 300 mg/kg, ip after 4 hrs; type: functional, organism-based; parameters: dose 300 mg/kg
Mus musculus [7] = test: Anticonvulsant activity in Swiss albino mouse assessed as protection against maximal electroshock-induced seizures at 300 mg/kg, ip after 4 hrs; type: functional, organism-based; parameters: dose 300 mg/kg
Mus musculus [8] = test: Anticonvulsant activity in Swiss albino mouse assessed as protection against subcutaneous pentylenetetrazole-induced seizures at 300 mg/kg, ip after 0.5 hrs; type: functional, organism-based; parameters: dose 300 mg/kg
Mus musculus [9] = test: Neurotoxicity in Swiss albino mouse assessed as motor impairment at 300 mg/kg, ip after 0.5 hrs by rotorod test; type: toxicity, organism-based; parameters: dose 300 mg/kg, route intraperitoneal; details: in vivo
Mus musculus [10] = test: Neurotoxicity in Swiss albino mouse assessed as motor impairment at 300 mg/kg, ip after 4 hrs by rotorod test; type: toxicity, organism-based; parameters: dose 300 mg/kg, route intraperitoneal; details: in vivo
Rattus norvegicus [11] = test: Anticonvulsant activity in Wistar rat maximal electroshock-induced seizures model assessed as time spend in hind leg tonic extensor phase at 30 mg/kg, po after 2 hrs relative to control; type: functional
Rattus norvegicus [12] = test: Anticonvulsant activity in Wistar rat maximal electroshock-induced seizures model assessed as time spend in hind leg tonic extensor phase at 30 mg/kg, po after 0.5 hrs relative to control; type: functional
Rattus norvegicus [13] = test: Anticonvulsant activity in Wistar rat assessed as protection against maximal electroshock-induced seizures at 30 mg/kg, po after 0.5 hrs; type: functional
Rattus norvegicus [14] = test: Anticonvulsant activity in Wistar rat assessed as protection against maximal electroshock-induced seizures at 30 mg/kg, po after 1 hr; type: functional
Rattus norvegicus [15] = test: Anticonvulsant activity in Wistar rat assessed as protection against maximal electroshock-induced seizures at 30 mg/kg, po after 2 hrs; type: functional
Rattus norvegicus [16] = test: Anticonvulsant activity in Wistar rat assessed as protection against maximal electroshock-induced seizures at 30 mg/kg, po after 0.25 hrs; type: functional
Rattus norvegicus [17] = test: Neurotoxicity in Wistar rat assessed as motor impairment at 30 mg/kg, po by rotorod test; type: toxicity, organism-based; parameters: dose 30 mg/kg, route oral; details: in vivo
Rattus norvegicus [18] = test: Anticonvulsant activity in Wistar rat maximal electroshock-induced seizures model assessed as time spend in hind leg tonic extensor phase at 30 mg/kg, po after 0.25 hrs relative to control; type: functional
Mus musculus [19] = test: Anticonvulsant activity in ip dosed Swiss albino mouse assessed as protection against subcutaneous pentylenetetrazole-induced seizures after 4 hrs; type: functional; details: read-out: MED
Rattus norvegicus [20] = test: Anticonvulsant activity in Wistar rat maximal electroshock-induced seizures model assessed as time spend in hind leg tonic extensor phase at 30 mg/kg, po after 4 hrs relative to control; type: functional
Rattus norvegicus [21] = test: Anticonvulsant activity in Wistar rat maximal electroshock-induced seizures model assessed as time spend in hind leg tonic extensor phase at 30 mg/kg, po after 1 hr relative to control; type: functional
Rattus norvegicus [22] = test: Anticonvulsant activity in Wistar rat assessed as protection against maximal electroshock-induced seizures at 30 mg/kg, po after 4 hrs; type: functional
Mus musculus [23] = test: Anticonvulsant activity in Swiss albino mouse assessed as protection against maximal electroshock-induced seizures at 300 mg/kg, ip after 0.5 hrs; type: functional, organism-based; parameters: dose 300 mg/kg

| SMILES | minimal effective dose (Mus musculus [1]) [mg/kg] | minimal effective dose (Mus musculus [3]) [mg/kg] | minimal effective dose (Mus musculus [5]) [mg/kg] | Activity (Mus musculus [6]) | Activity (Mus musculus [7]) | Activity (Mus musculus [8]) | Activity (Mus musculus [9]) | Activity (Mus musculus [10]) | Time (Rattus norvegicus [11]) [s] | Time (Rattus norvegicus [12]) [s] | Activity (Rattus norvegicus [13]) [%] | Activity (Rattus norvegicus [14]) [%] | Activity (Rattus norvegicus [15]) [%] | Activity (Rattus norvegicus [16]) [%] | Activity (Rattus norvegicus [17]) | Time (Rattus norvegicus [18]) [s] | minimal effective dose (Mus musculus [19]) [mg/kg] | Time (Rattus norvegicus [20]) [s] | Time (Rattus norvegicus [21]) [s] | Activity (Rattus norvegicus [22]) [%] | further results |
| --- | --- | --- | --- | --- | --- | --- | --- | --- | --- | --- | --- | --- | --- | --- | --- | --- | --- | --- | --- | --- | --- |
| COc1cc(/C=N/NC(=O)Nc2ccc(-n3c(-c4ccccc4)nc4c(Br)cc(Br)cc4c3=O)cc2)ccc1O | 100 | 300 | 300 | inactive |  |  |  |  |  |  |  |  |  |  |  |  |  |  |  |  | MTD at 4 h [2]: 300 mg/kg; MTD at 0.5 h [4]: 100 mg/kg |
| Cc1nc2c(Br)cc(Br)cc2c(=O)n1-c1ccc(NC(=O)N/N=C/c2ccc(Cl)cc2)cc1 | 300 |  |  | inactive | inactive | inactive |  |  |  |  |  |  |  |  |  |  |  |  |  |  |  |
| Cc1nc2c(Br)cc(Br)cc2c(=O)n1-c1ccc(NC(=O)N/N=C/c2ccccc2)cc1 | 100 | 300 | 300 | inactive |  |  | Non-toxic | Non-toxic |  |  |  |  |  |  |  |  |  |  |  |  |  |
| CN(C)c1ccc(/C=N/NC(=O)Nc2ccc(-n3c(-c4ccccc4)nc4c(Br)cc(Br)cc4c3=O)cc2)cc1 | 100 | 300 | 100 |  |  |  | Non-toxic | Non-toxic | 11.63 | 10.75 | 13 | 38 | 0 | 0 | Non-toxic | 12.75 | 300 | 11.88 | 7.5 | 0 |  |
| O=C(N/N=C/c1cccc([N+](=O)[O-])c1)Nc1ccc(-n2c(-c3ccccc3)nc3c(Br)cc(Br)cc3c2=O)cc1 |  |  |  |  | inactive | inactive |  |  |  |  |  |  |  |  |  |  | 300 |  |  |  | Activity (Mus musculus [23]): inactive |
| O=C(N/N=C/c1ccc(Cl)cc1)Nc1ccc(-n2c(-c3ccccc3)nc3c(Br)cc(Br)cc3c2=O)cc1 |  |  |  | inactive | inactive | inactive |  |  |  |  |  |  |  |  |  |  |  |  |  |  | Activity (Mus musculus [23]): inactive |
| Cc1nc2c(Br)cc(Br)cc2c(=O)n1-c1ccc(NC(=O)N/N=C/c2ccc(O)cc2)cc1 | 30 | 30 | 100 |  |  |  | Non-toxic | Non-toxic | 0 | 2.38 | 75 | 88 | 100 | 25 | Non-toxic | 6.63 | 300 | 0 | 1.25 | 100 |  |
| O=C(N/N=C/c1ccc(O)cc1)Nc1ccc(-n2c(-c3ccccc3)nc3c(Br)cc(Br)cc3c2=O)cc1 | 30 | 300 | 300 |  |  |  | Non-toxic |  | 9 | 12.38 | 0 | 0 | 25 | 0 | Non-toxic | 12.5 | 300 | 6.5 | 12 | 50 | MTD at 4 h [2]: 300 mg/kg |
